Test results: patent publication US11572337B2, “Antibacterial agents: arylalkylcarboxamido phloroglucinols” (Rutgers, The State University of New Jersey, priority 2018, dated 2023)
In brackets after ≈: the same amount, converted by molar mass.

Experiments:
[1] = biological target: E. coli RNA polymerase σ70 holoenzyme (Escherichia coli (strain K12), UniProt P0A8T7+P0A8V2); experiment: Fluorescence-detected assay of inhibition of Escherichia coli RNA polymerase; format: biochemical; details: T4 N25 promoter DNA, RiboGreen fluorescence, read-out: RNAP-inhibitory activity E. coli RNAP IC50
Experimental: (§1) Fluorescence-detected RNA polymerase assays with E. coli RNA polymerase were performed by a modification of the procedure of Kuhlman et al., 2004 [Kuhlman, P., Duff, H. & Galant, A. (2004) A fluorescence-based assay for multisubunit DNA-dependent RNA polymerases. Anal. Biochem. 324, 183-190]. Reaction mixtures contained […]: […] test salt, 75 nM E. coli RNA polymerase σ^70 holoenzyme, 20 nM 384 bp DNA fragment containing the bacteriophage T4 N25 promoter, 100 μM ATP, 100 μM GTP, 100 μM UTP, 100 μM CTP, 50 mM Tris-HCl, pH 8.0, 100 mM KCl, 10 mM MgCl2, 1 mM DTT, 10 μg/ml bovine serum albumin, and 5.5% glycerol. Reaction components other than DNA and NTPs were pre-incubated for 10 min at 37° C. Reactions were carried out by addition of DNA and incubation for 5 min at 37° C., followed by addition of NTPs and incubation for 60 min at 37° C. DNA was removed by addition of 1 μl 5 mM CaCl2 and 2 U DNaseI (Ambion, Inc.), followed by incubation for 90 min at 37° C. RNA was quantified by addition of 100 μI RiboGreen RNA Quantitation Reagent (Invitrogen, Inc.; 1:500 dilution in Tris-HCl, pH 8.0, 1 mM EDTA), followed by incubation for 10 min at 25° C., followed by measurement of fluorescence intensity [excitation wavelength=485 nm and emission wavelength=535 nm; QuantaMaster QM1 spectrofluorometer (PTI, Inc.)]. IC50 is defined as the concentration of inhibitor resulting in 50% inhibition of RNA polymerase activity.

[2] = biological target: S. aureus RNA polymerase core enzyme + S. aureus σA (Staphylococcus aureus (strain NCTC 8325 / PS 47), UniProt P47768+Q2G0N5); experiment: Fluorescence-detected assay of inhibition of Staphylococcus aureus RNA polymerase; format: biochemical; details: T4 N25 promoter DNA, RiboGreen fluorescence, read-out: RNAP-inhibitory activity S. aureus RNAP IC50
Experimental: as §1
Fluorescence-detected RNA polymerase assays with S. aureus RNA polymerase were performed as in Example 2.1, using reaction mixtures containing (20 μl): 0-100 nM test salt, 75 nM S. aureus RNA polymerase core enzyme, 300 nM S. aureus σ^A, 20 nM 384 bp DNA fragment containing the bacteriophage T4 N25 promoter, 100 μM ATP, 100 μM GTP, 100 μM UTP, 100 μM CTP, 40 mM Tris-HCl, pH 8.0, 80 mM NaCl, 5 mM MgCl2, 2.5 mM DTT, and 12.7% glycerol. IC50 is defined as the concentration of inhibitor resulting in 50% inhibition of RNA polymerase activity.

[3] = test system: Staphylococcus aureus ATCC 12600; experiment: Inhibition of growth of Staphylococcus aureus (spiral gradient endpoint MIC assay); format: cell-based; details: ATCC12600, Mueller-Hinton II cation-adjusted agar, 16 h at 37° C., read-out: in vitro antibacterial activity S. aureus ATCC12600 MIC
Text: Minimum inhibitory concentrations (MICs for Staphylococcus aureus ATCC 12600 were quantified using spiral gradient endpoint assays, essentially as described [Wallace, A. and Corkill, J. (1989) Application of the spiral plating method to study antimicrobial action. J. Microbiol. Meths. 10, 303-310; Paton, J., Holt, A., and Bywater, M. (1990) Measurement of MICs of antibacterial agents by spiral gradient endpoint compared with conventional dilution methods. Int. I Exp. Clin. Chemother. 3, 31-38; Schalkowsky S. (1994) Measures of susceptibility from a spiral gradient of drug concentrations. Adv. Exp. Med. Biol. 349, 107-120]. Assays employed exponential-gradient plates containing 150 mm×4 mm Mueller-Hinton II cation-adjusted agar and 0.4-100 μg/ml of test salt. Plates were prepared using an Autoplate 4000 spiral plater (Spiral Biotech, Inc.). Saturated overnight cultures were swabbed radially onto plates, and plates were incubated for 16 h at 37° C. For each culture, the streak length was measured using a clear plastic template (Spiral Biotech, Inc.), the test-salt concentration at the streak endpoint was calculated using the program SGE (Spiral Biotech, Inc.), and the MIC was defined as the calculated test-salt concentration at the streak endpoint.

For `O=C(NCc1ccc(Cl)cc1)c1c(O)cc(O)cc1O` [Compound 0MTK107, N-(4-chlorobenzyl)-2,4,6-trihydroxybenzamide], which IC50 [1] is on record?
The IC50 was 400 nM.

And the IC50 [2]?
Its IC50 is 2000 nM.

What about the MIC [3] of the same compound?
The MIC was over 40 µg/mL.

`O=C(NCCc1ccc(Cl)cc1)c1c(O)cc(O)cc1O` [Compound 0MTK127, N-(4-chlorophenethyl)-2,4,6-trihydroxybenzamide] was tested. Which IC50 [1] did it give?
The IC50 was 370 nM.

And the IC50 [2]?
The IC50 was 1500 nM.

What about the MIC [3] of the same compound?
Its MIC is 20 µg/mL (≈ 65 µM).

For `CN(CCc1ccc(Cl)cc1)C(=O)c1c(O)cc(O)cc1O` [Compound 0MTK128, N-(4-chlorophenethyl)-2,4,6-trihydroxy-N-methylbenzamide], which IC50 [1] is on record?
Its IC50 is 970 nM.

What about the IC50 [2] of the same compound?
The IC50 was over 100000 nM.

What about the MIC [3] of the same compound?
The MIC was over 20 µg/mL.

With `CC(C)(CNC(=O)c1c(O)cc(O)cc1O)c1ccc(Cl)cc1` [Compound 0MTK146, N-(2-(4-chlorophenyl)-2-methylpropyl)-2,4,6-trihydroxybenzamide] as the compound, how does the IC50 [1] read?
Its IC50 is 690 nM.

What about the IC50 [2] of the same compound?
Its IC50 is 2700 nM.

And the MIC [3]?
Its MIC is 22 µg/mL (≈ 65.5 µM).

What does the source list for `O=C(NCc1ccc(Oc2ccccc2)cc1)c1c(O)cc(O)cc1O` [Compound 0MTK149, 2,4,6-trihydroxy-N-(4-phenoxybenzyl)benzamide]?
IC50 [1]: 140 nM; IC50 [2]: 1500 nM; MIC [3]: 19 µg/mL (≈ 54.1 µM)

Which results are given for `O=C(NCc1ccc(Oc2ccc(F)cc2)cc1)c1c(O)cc(O)cc1O` [Compound 0MTK154, N-(4-(4-fluorophenoxy)benzyl)-2,4,6-trihydroxybenzamide]?
IC50 [1]: 420 nM; IC50 [2]: 3500 nM; MIC [3]: 15 µg/mL (≈ 40.6 µM)

Which results are given for `COc1ccc(Oc2ccc(CCNC(=O)c3c(O)cc(O)cc3O)cc2)cc1` [Compound 0MTK260, 2,4,6-trihydroxy-N-(4-(4-methoxyphenoxy)phenethyl)benzamide]?
IC50 [1]: 780 nM; IC50 [2]: 6200 nM

`O=C(NCCc1ccc(Oc2ccc(N3CCOCC3)cc2)cc1)c1c(O)cc(O)cc1O` [Compound 0MTK261, 2,4,6-trihydroxy-N-(4-(4-morpholinophenoxy)phenethyl)benzamide] was tested. Which IC50 [1] did it give?
The IC50 was 1500 nM.

What about the IC50 [2] of the same compound?
Its IC50 is 7500 nM.

With `O=C(NCCc1ccc(Oc2cncnc2)cc1)c1c(O)cc(O)cc1O` [Compound 0MTK262, 2,4,6-trihydroxy-N-(4-(pyrimidin-5-yloxy)phenethyl)benzamide] as the compound, how does the IC50 [1] read?
The IC50 was 1500 nM.

What about the IC50 [2] of the same compound?
Its IC50 is 7400 nM.

With `O=C(NCCc1ccc(Oc2cccc(N3CCOCC3)c2)cc1)c1c(O)cc(O)cc1O` [Compound 0MTK263, 2,4,6-trihydroxy-N-(4-(3-morpholinophenoxy)phenethyl)benzamide] as the compound, how does the IC50 [1] read?
Its IC50 is 1300 nM.

What about the IC50 [2] of the same compound?
The IC50 was 7100 nM.

Which IC50 [1] does the source give for `O=C(NCCc1ccc(Oc2cccnc2)cc1)c1c(O)cc(O)cc1O` [Compound 0MTK264, 2,4,6-trihydroxy-N-(4-(pyridin-3-yloxy)phenethyl)benzamide] here?
Its IC50 is 820 nM.

What about the IC50 [2] of the same compound?
Its IC50 is 3800 nM.

`O=C(NCCc1ccc(Oc2ccncc2)cc1)c1c(O)cc(O)cc1O` [Compound 0MTK265, 2,4,6-trihydroxy-N-(4-(pyridin-4-yloxy)phenethyl)benzamide] was tested. Which IC50 [1] did it give?
Its IC50 is 1300 nM.

And the IC50 [2]?
Its IC50 is 6400 nM.

With `O=C(NCCc1ccc(Oc2ccc(-c3ccncc3)cc2)cc1)c1c(O)cc(O)cc1O` [Compound 0MTK266, 2,4,6-trihydroxy-N-(4-(4-(pyridin-4-yl)phenoxy)phenethyl)benzamide] as the compound, how does the IC50 [1] read?
The IC50 was 1200 nM.

And the IC50 [2]?
Its IC50 is 5100 nM.

Which IC50 [1] does the source give for `O=C(NCCc1ccc(Oc2ccc(-c3cccnc3)cc2)cc1)c1c(O)cc(O)cc1O` [Compound 0MTK267, 2,4,6-trihydroxy-N-(4-(4-(pyridin-3-yl)phenoxy)phenethyl)benzamide] here?
Its IC50 is 300 nM.

And the IC50 [2]?
Its IC50 is 1700 nM.

With `O=C(NC1CC1)c1cccc(Oc2ccc(CCNC(=O)c3c(O)cc(O)cc3O)cc2)c1` [Compound 0MTK268, N-(4-(3-(cyclopropylcarbamoyl)phenoxy)phenethyl)-2,4,6-trihydroxybenzamide] as the compound, how does the IC50 [1] read?
Its IC50 is 800 nM.

And the IC50 [2]?
Its IC50 is 2900 nM.

For `O=C(NCCc1ccc(Oc2cccc(-c3ccncc3)c2)cc1)c1c(O)cc(O)cc1O` [Compound 0MTK269, 2,4,6-trihydroxy-N-(4-(3-(pyridin-4-yl)phenoxy)phenethyl)benzamide], which IC50 [1] is on record?
The IC50 was 700 nM.

What about the IC50 [2] of the same compound?
Its IC50 is 3000 nM.
